One series has as its target recombinant PHGDH (Homo sapiens (Human), UniProt O43175). In words: In vitro enzymatic activity of PHGDH by fluorescence kinetic method. The conditions noted are these: recombinant PHGDH 30 ng/μL, NADH fluorescence at 456 nm. It is filed as biochemical. The protocol: The activity of recombinant PHGDH was measured by monitoring the reduced nicotinamideadenine dinucleotide (NADH) to nicotinamideadenine dinucleotide (NAD^+) change in fluorescence emission at 456 nm. PHGDH (final concentration of 30 ng/μL) was first pre-incubated with enzyme samples in the assay buffer (25 mM HEPES, pH 7.1, 400 mM KCl, 5 μM phosphopyridoxa (PLP), 0.5 mM α-ketoglutarate, 150 μM NADH, PSAT1) for 10 min in 96-well plate, then 10 μL of DMSO (control) or a small molecule of DMSO solution was added, shaken at 550 rpm for 5 minutes at 25° C. and balanced for 5 minutes. […] The reaction was started by adding L-phospho-O-serine (Pser) solution. The UV-visible microplate reader was used to monitor the change of NADH consumption at 456 nm with time. Protein activity was assessed by using an initial rate of reaction within 30 s, at which time NADH consumption was linear over time. The enzymatic inhibition ability of sixty-three compounds was first measured at 50 μM, compounds with percentage inhibition of PHGDH larger than 50% were selected for further studies, and IC50 values were obtained (Table 3).

The subject of the next series is colon cancer cell DLD-1. Kind of series: MTT cell viability assay, DLD-1. In kind it is cell-based. The following applies: Homo sapiens, 72 h, colon cancer cells. The text has this:
(§1) The biological activities of the compounds at the cellular level were investigated. A series of cancer cells and normal mammary epithelial cells were selected, and the experimental method of MTT (3-(4,5)-dimethylthiahiazo (-z-y 1)-3,5-di-phenytetrazoliumromide) was used.
(§2) The specific method: firstly, PHGDH-sensitive breast cancer cells MDA-MB-468 (5,000 cells/well) and HCC70 (5,000 cells/well), PHGDH-insensitive breast cancer cells MCF-7 (3,000 cells/well), MDA-MB-231 (2,000 cells/well) and ZR-75-1 (4,000 cells/well), colon cancer cell DLD-1 (2,000 cells/well) and normal breast epithelial cells MCF-10A (3,000 cells/well) in the exponential growth were plated into 96-well culture plates and treated in triplicate with or without various concentrations of activated compounds from the enzymatic bioassays. They adhered to the wall over night. The compounds were added from stock solutions in DMSO and the final concentration of DMSO in the medium was 0.2%. After 72 h, 20 μL 5 mg/ml MTT was added to each well and incubated for at least 4 h. […] The number of viable cells was assessed by spectrophotometry at 570 nm, and calculated as the percentage of absorbance of treated cells relative to that of solvent controls. Results were expressed as a percentage of viable cells and the EC50 was calculated by using the Hill equation.
In general terms: Tetrazolium dyes change colour on reduction, which living cells bring about.

For series [1], the system named is PHGDH-sensitive breast cancer cells MDA-MB-468. Kind of series: MTT cell viability assay, MDA-MB-468. In kind it is cell-based. The following applies: Homo sapiens, 72 h.
Text: as §1, §2

The test system of series [2] is PHGDH-sensitive breast cancer cells HCC70. In words: MTT cell viability assay, HCC70. It is filed as cell-based. The following applies: Homo sapiens, 72 h.
Text: as §1, §2

Series [3] concerns PHGDH-insensitive breast cancer cells MDA-MB-231. Kind of series: MTT cell viability assay, MDA-MB-231. The conditions noted are these: Homo sapiens, 72 h. It is filed as cell-based.
Text: as §1, §2

For series [4], the system named is PHGDH-insensitive breast cancer cells ZR-75-1. Kind of series: MTT cell viability assay, ZR-75-1. It is filed as cell-based. The following applies: Homo sapiens, 72 h.
Text: as §1, §2

Series [5] has as its system PHGDH-insensitive breast cancer cells MCF-7. Kind of series: MTT cell viability assay, MCF-7. In kind it is cell-based. The conditions noted are these: Homo sapiens, MCF7, 72 h.
Text: as §1, §2

Series [6] concerns normal breast epithelial cells MCF-10A. In words: MTT cell viability assay, MCF-10A. It is filed as cell-based. The following applies: Homo sapiens, 72 h.
Text: as §1, §2

Another series relates to MDA-MB-468 Cells. Kind of series: Cell cycle analysis by PI staining and flow cytometry. The following applies: MDA-MB-468, 24 h, various concentrations. In kind it is cell-based. The protocol:
MDA-MB-468 Cells (300,000 cells/well) in exponential growth were plated into 6-well culture plates and then treated in triplicate with or without various concentrations of PKUMDL-WL-2101. After 24 h, cells were harvested by trypsinization and centrifuged, and then fixed in 70% ice-cold ethanol, washed twice with 1×PBS, and kept at 4° C. overnight. The fixed cells were afterwards washed in 1×PBS and resuspended in 1×PBS containing 0.5% triton-x-100, 50 μg/ml Prodiumiodide (PI) and 50 μg/ml DNase-free RNase. The cell suspension was incubated in the dark for 30 min at 37° C. and analyzed by using a BD FACSCanto™ cytometer.
(In flow cytometry, cells or beads pass a laser one at a time.)

Another series deals with MDA-MB-468 xenografts. Kind of series: Mouse xenograft model, compounds injected separately. In kind it is in vivo. The conditions noted are these: 20 mg/kg/day IP; for inhibitory effects on MDA-MB-468 xenografts (tumor volume): after 30 days of drug delivery, vs vehicle; for tolerability (body weight): over the course of the experiments. The protocol:
All animal experiments were performed in compliance with guidelines of the Animal Welfare Act and the guide for the care and use of laboratory animals following protocols approved by the Institutional Animals Care and Use Committee (IACUC). […] The tumor volumes were measured every two days and calculated by using the following formula width^2 (mm)×length (mm)×0.5.

recombinant PHGDH, sequence (O43175 whole entry): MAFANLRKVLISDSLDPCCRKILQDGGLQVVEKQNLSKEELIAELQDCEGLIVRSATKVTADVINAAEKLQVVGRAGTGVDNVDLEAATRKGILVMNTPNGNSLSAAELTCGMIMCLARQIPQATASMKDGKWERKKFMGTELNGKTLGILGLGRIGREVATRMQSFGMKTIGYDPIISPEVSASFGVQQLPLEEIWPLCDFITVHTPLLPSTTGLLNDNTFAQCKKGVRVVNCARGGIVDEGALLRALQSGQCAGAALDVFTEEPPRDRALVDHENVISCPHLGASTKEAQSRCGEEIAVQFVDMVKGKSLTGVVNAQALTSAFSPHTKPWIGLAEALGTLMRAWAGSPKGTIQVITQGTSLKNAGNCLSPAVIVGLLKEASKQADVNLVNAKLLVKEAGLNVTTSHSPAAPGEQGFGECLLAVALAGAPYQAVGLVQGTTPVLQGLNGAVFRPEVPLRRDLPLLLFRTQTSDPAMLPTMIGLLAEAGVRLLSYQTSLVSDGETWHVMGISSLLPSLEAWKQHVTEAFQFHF

With `CCNC(=S)N/N=C/c1ccc(-c2ccc([N+](=O)[O-])cc2)o1` [PKUMDL-WL-2228, (E)-N-ethyl-2-((5-(4-nitrophenyl)furan-2-yl)methylene) hydrazinecarbothioamide], the IC50 (as a rule, the point on the concentration scale where inhibition reaches its midpoint) on recombinant PHGDH turned out to be 37 ± 2.8 µM.

With `O=C(N/N=C/c1cc([N+](=O)[O-])ccc1O)c1ccc(C(F)(F)F)cc1` [PKUMDL-WL-2128], the IC50 at recombinant PHGDH was 36.1 ± 4.2 µM.

Regarding `CCNC(=S)N/N=C/c1ccc(-c2ccc(C(=O)O)cc2)o1` [PKUMDL-WL-2226, (E)-4-(5-((2-(ethylcarbamothioyl) hydrazono)methyl)furan-2-yl) benzoic acid], the IC50 at recombinant PHGDH was 35.5 ± 1.1 µM.

On to `NNC(=S)N/N=C/c1ccc(-c2ccc(C(=O)O)cc2)o1` [PKUMDL-WL-2222, (E)-4-(5-((2-(hydrazinecarbonothioyl) hydrazono)methyl)furan-2-yl) benzoic acid], for which the IC50 on recombinant PHGDH was 16.7 ± 1.6 µM.

For `NNC(=S)N/N=C/c1ccc(-c2ccc(S(N)(=O)=O)cc2)o1` [PKUMDL-WL-2225, (E)-4-(5-((2-(hydrazinecarbonothioyl) hydrazono)methyl)furan-2-yl) benzenesulfonamide], the IC50 at recombinant PHGDH stood at 38.9 ± 1.2 µM.

On to `COC(=O)c1ccc(-c2ccc(/C=N/NC(=S)NN)o2)cc1` [PKUMDL-WL-2220, (E)-Methyl 4-(5-((2-(hydrazinecarbonothioyl) hydrazono)methyl)furan-2-yl) benzoate], for which the IC50 at recombinant PHGDH came to 8.9 ± 1.8 µM.

Consider `CCNC(=S)N/N=C/c1ccc(-c2ccc(O)cc2)o1` [PKUMDL-WL-2229, (E)-N-ethyl-2-((5-(4-hydroxyphenyl)furan-2-yl)methylene) hydrazinecarbothioamide], for which the IC50 at recombinant PHGDH stood at 30.3 ± 4.5 µM.

Regarding `CCNC(=S)N/N=C\c1ccc(-c2ccc(C(=O)O)c(Cl)c2)o1` [PKUMDL-WL-2201, (Z)-2-chloro-4-(5-((2-(ethylcarbamothioyl) hydrazono)methyl)furan-2-yl) benzoic acid], the concentration for half-maximal inhibition (IC50) on recombinant PHGDH is 35.7 ± 8.6 µM. Further, the EC50 (as a rule, the concentration at which the effect is half-maximal) with colon cancer cell DLD-1 is 167 µM; in [1], 6.9 µM; in series [2] it was 10 µM; in [3] it was above 200 µM; in series [4] it was 125 µM; in series [5] it was above 200 µM. Further, in series [6], the half-maximal effective concentration (EC50) stood at 64.7 µM. Also, the “effect on cell cycle” value in the series with MDA-MB-468 Cells is “arrested the cell cycle at the G0/G1-phase in a dose-dependent manner”. Also, in the series with MDA-MB-468 xenografts, the “inhibitory effects on MDA-MB-468 xenografts (tumor volume)” value is recorded as “substantial inhibitory effects”. Besides, the “tolerability (body weight)” value in the series on MDA-MB-468 xenografts is “maintain normal body weight”.

Take `COC(=O)c1ccc(-c2ccc(/C=N/NC(=S)Nc3ccc([N+](=O)[O-])cc3)o2)cc1` [PKUMDL-WL-2212, (E)-Methyl 4-(5-((2-((4-nitrophenyl)carbamothioyl) hydrazono)methyl)furan-2-yl) benzoate]: the IC50 at recombinant PHGDH came out at 29.8 ± 9.4 µM.

Consider `O=C(N/N=C/c1cc([N+](=O)[O-])ccc1O)c1ccc(O)cc1O` [PKUMDL-WL-2101, (E)-2,4-dihydroxy-N′-(2-hydroxy-5-nitrobenzylidene)benzohydrazide], for which the IC50 on recombinant PHGDH came to 34.8 ± 3.6 µM. The EC50 with colon cancer cell DLD-1 worked out at 18.3 µM; in [1] it was 7.7 µM; in series [2], 10.8 µM; in series [3], 27.7 µM; in [4], 83.4 µM; in [5], 139 µM. Moreover, in series [6], the EC50 turned out to be 45.8 µM. The “effect on cell cycle” value with MDA-MB-468 Cells is given as “arrested the cell cycle at the G0/G1-phase in a dose-dependent manner”. Also, in the series with MDA-MB-468 xenografts, the “inhibitory effects on MDA-MB-468 xenografts (tumor volume)” value is listed as “substantial inhibitory effects”. Besides, in the series on MDA-MB-468 xenografts, the “tolerability (body weight)” value is listed as “maintain normal body weight”.

Source of the values: patent US10722489B2, “D-3-phosphoglycerate dehydrogenase allosteric inhibitor and use thereof” (Peking University, priority 2016, dated 2020).
